Results published in US4999424A, “GAR transformylase inhibitor” (The Pennsylvania State University, priority 1988, dated 1991).
Read-outs that look alike come from different tables or passages of the source.

What was measured:
E. coli GAR TFase [1] = target: T1, E. coli GAR TFase (Escherichia coli, UniProt P08179); assay: E. coli GAR TFase inhibition/activity assay (5,8-dideazafolate absorbance at 295 nm); type: biochemical
T1 construct: made in house; host or cells: E. coli TX393 with multicopy plasmid pJS85, or E. coli TX635 with lambda pL plasmid pJS119 or pJS167
T1 sequence (P08179 1-212): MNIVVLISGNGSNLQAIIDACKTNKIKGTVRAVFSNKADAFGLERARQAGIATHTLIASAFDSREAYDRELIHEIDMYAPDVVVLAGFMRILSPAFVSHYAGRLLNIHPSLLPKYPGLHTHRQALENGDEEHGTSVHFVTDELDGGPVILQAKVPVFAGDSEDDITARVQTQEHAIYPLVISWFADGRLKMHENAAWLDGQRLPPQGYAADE
Experimental: (§1) All assays were carried out by following the increase of 5,8-dideazafolate absorbence at 295 nm in buffered medium at 26° C. To initiate the reaction, enzyme (1 nM final concentration) was added to a mixture of saturating substrates and variable amounts of inhibitor. A characteristic family of curves was obtained, showing slow, tight-binding inhibition. See, Morrison, Trends Biochem. Sc., 7, 102 (1982) and Morrison, et al., Adv. Enzymology, Relat. Areas Mol. Biol., 57, 201-301 (1987).
(§2) In analyzing the biological activity of the compounds of the present invention, GAR TFase from E. coli was used. This enzyme behaves like the mammalian and avian enzyme with respect to substrate specificity, yet is a simple and effective system having only one biological activity. That is, unlike the avian trifunctional GAR TFase, the E. coli species has a sole function. This follows from the genetic evidence of Smith and Daum, J. Biol. Chem., 262, 10565-10569 (1987) as w®11 as the work of Schrimsher et al., Biochemistry, 25, 4366-4371 (1986) who have shown that […] from E. coli is a monofunctional protein, whereas, in chicken it belongs to a trifunctional protein containing, the activates: GAR SYNthase, GAR TFase, and AIR SYNthase.
The E. coli GAR TFase binding constants for the compounds of the present invention and other folate analogs are shown in Table I below:
Table II illustrates the specificity of beta-TGDDF for GAR TFase in comparison with other reduced-folate utilizing enzymes. This test, was conducted using the same [I]/[E]ratios as stated previously.

GAR TFase = conditions: indirectly shown, solid tumors in mice; cited from earlier work
[2] = system: intracellular pools of ATP and GTP; conditions: tested against solid tumors in mice; cited from earlier work
solid tumors = conditions: variety of solid tumors in mice; cited from earlier work
HL-60 = conditions: in vivo and in vitro; cited from earlier work
6C3HED lymphosarcoma = conditions: in vivo and in vitro; cited from earlier work
X-5563 = conditions: in vivo and in vitro; cited from earlier work
B-16 melanoma = conditions: in vivo and in vitro; cited from earlier work
L1210 leukemia = conditions: in vivo and in vitro; cited from earlier work
P388 leukemia = conditions: in vivo and in vitro; cited from earlier work
E. coli GAR TFase [3] = target: T1, E. coli GAR TFase; assay: Fluorescence titration, dissociation constant for E. coli GAR TFase; type: binding
Experimental: The thermodynamic dissociation constant, KD, for the E.β-TGDDF complex was measured by following the enhancement of the inhibitor's 395 nm fluorescence (excitation at 275 nm) upon binding to GAR TFase. A concentrated E. coli GAR TFase solution was added to an 11 nM solution of purified β-TGDDF; for each addition, the fluorescence at three different wavelengths (396, 400, and 405 nm) was measured. Fluorescence titration data was analyzed by the method of Taira and Benkovic, J. Med. Chem., 31, 129-137 (1988).
as §2
(§3) The E. coli GAR TFase binding constants for the compounds of the present invention and other folate analogs are shown in Table I below: […]

[4] = substrate: NCC(=O)N[C@@H]1O[C@H](COP(=O)(O)O)[C@@H](O)[C@H]1O; assay: E. coli GAR TFase inhibition/activity assay (5,8-dideazafolate absorbance at 295 nm); type: biochemical; conditions: other: Table I, 26.0 °C
Experimental: as §1, §2, §3

[5] = substrate: Nc1nc(O)c2cc(CN(C=O)c3ccc(C(=O)N[C@@H](CCC(=O)O)C(=O)O)cc3)ccc2n1; assay: as above; type: biochemical; conditions: other: Table I, 26.0 °C
Experimental: as §1, §2, §3

For `Nc1nc2ccc(CNc3ccc(C(=O)N[C@@H](CCC(=O)O)C(=O)O)cc3)cc2c(=O)[nH]1` [DDF, 5,8-dideazafolate, reference compound], the Ki (E. coli GAR TFase [1]) was 28100 nM.

For `Nc1nc2c(c(=O)[nH]1)CC(CCc1ccc(C(=O)NC(CCC(=O)O)C(=O)O)cc1)CN2` (stereo not shown) [DDATHF], the “Inhibition of GAR TFase” value (GAR TFase) is listed as “indirectly shown to inhibit GAR TFase”, the “Effect on intracellular pools of ATP and GTP” value [2] is listed as “depletion of intracellular pools of ATP and GTP” and the “Activity against solid tumors” value (solid tumors) is listed as “impressive activity”. For the same molecule, the Anti-tumor activity (HL-60) was “anti-tumor,activity”, the Anti-tumor activity (6C3HED lymphosarcoma) was “anti-tumor,activity” and the Anti-tumor activity (X-5563) was “anti-tumor,activity”. The Anti-tumor activity (B-16 melanoma) was “anti-tumor,activity”, the Anti-tumor activity (L1210 leukemia) was “anti-tumor,activity” and the Anti-tumor activity (P388 leukemia) was “anti-tumor,activity”.

With `Nc1nc2ccc(CN(C(=O)CSCC(=O)N[C@H]3O[C@H](COP(=O)(O)O)[C@@H](O)[C@H]3O)c3ccc(C(=O)N[C@@H](CCC(=O)O)C(=O)O)cc3)cc2c(=O)[nH]1` [alpha-TGDDF] the “binding affinity for GAR TFase (comparison of anomers)” value (E. coli GAR TFase [3]; alpha- versus beta-anomer) was “lower than the beta-anomer” and the Kd (E. coli GAR TFase [3]; alpha-anomer, read-out: KD) was 5.8 nM.

`Nc1nc2ccc(CN(C(=O)CSCC(=O)NC3O[C@H](CO)[C@@H](O)[C@H]3O)c3ccc(C(=O)N[C@@H](CCC(=O)O)C(=O)O)cc3)cc2c(=O)[nH]1` (stereo partly drawn) [alpha,beta-dephospho-TGDDF] showed a Ki (E. coli GAR TFase [1]; Table I, E. coli GAR TFase, read-out: KI) of 1700 nM.

For `CN(Cc1cnc2nc(N)nc(N)c2n1)c1ccc(C(=O)N[C@@H](CCC(=O)O)C(=O)O)cc1` [methotrexate], the “Activity against solid tumors” value (solid tumors) is given as “minimal activity”.

B1: E. coli GAR TFase (Escherichia coli K-12) (protein)
chain: T1 sequence (P08179 1-212)
notes: made in house; host or cells: E. coli TX393 with multicopy plasmid pJS85, or E. coli TX635 with lambda pL plasmid pJS119 or pJS167
For B1, the Km [4] was 20 µM and the Km [5] was 36 µM.
